{"source": "patent US20120142750A1", "about": "“INDOLEAMINE 2,3-DIOXYGENASE PATHWAYS IN THE GENERATION OF REGULATORY T CELLS” (Regents of the University of Minnesota, priority 2005, published 2012)", "key": {"[1]": {"test_system": "PDCs and allogeneic naive CD4+ T cells", "test": "In vitro priming of naive CD4+ T cells by allogeneic PDCs: CD4+CD25+Foxp3+ Treg generation (flow cytometry)", "assay_type": "cell-based, human", "text": "PDC, B, and T cell isolation. Human PBMC were isolated under IRE-approved protocols from apheresis products of healthy blood donors (Memorial Blood Centers of Minnesota, Minneapolis, Minn.) by Ficoll-Paque density gradient centrifugation. Plasmascytoid dendritic cells (PDCs) were isolated from PBMC using BDCA-4 cell isolation kits and the MACS system, followed by staining and sorting to collect purified Lin-CD11c-CD123+ PDCs, as reported previously (Moseman et al., J Immunol 2004; 173:4433-4442). […] cells were isolated from PBMC using CD4 T cell isolation kits followed by positive selection with CD45RA microbeads. […] B cells were isolated from PBMC with CD19 microbeads and the MACS system to greater than 98% purity of CD19+ B cells. All cell isolations kits and microbeads were from Miltenyi Biotec (Bergisch Gladbach, Germany). Reagents. Phosphorothioate-modified type-A CpG ODN 2216: […] NO:2), type-B CpG ODN 2006: […] NO:3) (sequences are shown 5'-3'; small letters represent phosphorothioate linkage; capital letters represent phosphodiester linkage 3' of the base; bold represents CpGdinucleotides) were from Integrated DNA Technologies (Coralville, Iowa), diluted in PBS, and used at a final concentration of 1 microgran per milliliter (μg/ml). […] Kynurenine (L-KYN, Sigma-Aldrich) was used at a final concentration of 50 μM. In vitro priming of naive CD4+ T cells. CD4+CD45RA+ naive T cells were primed with allogeneic PDCs or irradiated B cells (30 Gy) at a 10:1 ratio (e.g., 2×10^6 naive CD4+ T cells plus 2×105 PDCs per well in 24-well plates) with ODN 2216 or ODN 2006 present in RPMI 1640 medium supplemented with 10% human AB serum. 1 MT and/or KYN were added into CpG ODN-PDC or CpG ODN-B cell mediated naive CD4+ T cell priming cultures as indicated. […] After 7 days, primed T cells in cultures were harvested, assessed for their surface phenotype, intracellular Foxp3 expression, and their function in MLR assays. […] Mean fluorescence intensity (MFI) and positive cell percentages of stained cells were determined by flow cytometry."}, "[2]": {"test_system": "IDO protein in PDCs", "test": "Western blot for IDO protein in cultured PDCs", "assay_type": "cell-based, human", "settings": "48 hours culture with CpG ODN", "procedure": "Western blots. Protein lysates were prepared from 2×10^5 fresh or cultured PDCs or B cells. Western blot was performed with antibody specific for IDO protein"}, "[3]": {"test_system": "PDCs", "test": "Surface expression of CD80, CD86, HLA-DR on PDCs (flow cytometry)", "assay_type": "cell-based, human", "settings": "CpG ODN stimulation 48 hours", "text": "PDC, B, and T cell isolation. Human PBMC were isolated under IRE-approved protocols from apheresis products of healthy blood donors (Memorial Blood Centers of Minnesota, Minneapolis, Minn.) by Ficoll-Paque density gradient centrifugation. Plasmascytoid dendritic cells (PDCs) were isolated from PBMC using BDCA-4 cell isolation kits and the MACS system, followed by staining and sorting to collect purified Lin-CD11c-CD123+ PDCs, as reported previously (Moseman et al., J Immunol 2004; 173:4433-4442). CD4+CD45RA+ naïve T cells were isolated from PBMC using CD4 T cell isolation kits followed by positive selection with CD45RA microbeads. The purity of naïve CD4+ T cells was greater than 95% for CD4+CD45RA+ expression and less than 0.5% for CD25+ expression. B cells were isolated from PBMC with CD19 microbeads and the MACS system to greater than 98% purity of CD19+ B cells. All cell isolations kits and microbeads were from Miltenyi Biotec (Bergisch Gladbach, Germany).\nFlow Cytometry. Fluorescent antibodies (Abs) against human CD3, CD4, CD11c, CD19, CD25, CD40, CD45, CD45RA, CD45RO, CD80, CD86, CD123, HLA-DR, lineage (Lin) markers, and isotype control Abs were from BD Biosciences (San Diego, Calif.). […] Mean fluorescence intensity (MFI) and positive cell percentages of stained cells were determined by flow cytometry."}, "[4]": {"test_system": "BM3 T cells", "test": "Co-adoptive transfer of Tregs and BM3 T cells into CBK recipients", "assay_type": "in vivo, mouse", "settings": "96 hours", "procedure": "Co-Adoptive Transfer. Purified (Mo-Flo sorted) CD4+CD25+ Tregs were prepared from spleens of CBK donor mice treated 24 hours previously with either 50 μg CpG or non-CpG. Tregs (1×10^6/recipient) were mixed with nylon-wool enriched BM3 responder T cells (5×10^6/recipient) and co-injected into CBK recipients (2-3 mice/group). Positive controls were CBK mice receiving BM3 T cells without Tregs; negative controls were CBA mice (lacking target antigen) receiving BM3 T cells. After 96 hours, mice were sacrificed and spleen cells stained with antibodies against CD8 (PerCP), CD25 (APC), H2K^b (PE) and biotinylated Ti98 (BM3 anti-clonotypic antibody, visualized with streptavidin APC (Tarazona et al. (1996) International Immunology 8:351-358). Except for Ti98, all antibodies were from Pharmingen (San Diego, Calif.)."}, "[5]": {"test_system": "splenic Tregs", "test": "Flow cytometry of CHOP and FoxP3 in splenic Tregs of treated mice", "assay_type": "in vivo, mouse", "settings": "wild-type mice", "procedure": "(§1) CpG Oligonucleotides. CpG-ODNs (CpG no. 1826, […]; (SEQ ID NO:4) and sequence matched non-CpG-B no. 2138, […] (SEQ ID NO:5)) with fully phosphorothioate backbones were purchased from Coley Pharmaceuticals. Mice were injected with relatively high doses of ODNs (50 μg/mouse, i/v) as described (Mellor et al. J Immunol 2005; 175:5601-5605).\nAnalytical flow cytometry. Intracellular CHOP staining was performed as described (Munn et al. (2005) Immunity 22:1-10), using antibody sc-7351 (Santa Cruz Biotechnology, Santa Cruz, Calif.)."}, "[6]": {"test_system": "BM3 T cells", "test": "Ex vivo T cell suppression assays with sorted Tregs from treated mice", "assay_type": "in vivo, mouse", "procedure": "as §1\n1-methyl-[D]-tryptophan (1 mT). 1 mT (catalog number 45, 248-3, Sigma) was prepared as a 20 mM stock solution in 0.1 N NaOH, adjusted to pH 7.4, and stored at −20° C. protected from light. For in vitro use, 1 mT was added to MLRs to a final concentration of 100 μM. For in vivo treatment, slow-release polymer pellets (*5 mg/day) containing 1 mT or vehicle alone were inserted under the dorsal skin as described (Munn et al. Science 1998; 281:1191-1193) 24 hours before CpG treatment.\nPreparative flow cytometry to sort CD4+ T cells subsets. CD4+ T cell subsets were purified using a Mo-Flo cytometer as described (Mellor et al. J Immunol 2005; 175:5601-5605; Munn et al. Immunity 2005; 22:1-10).\nEx vivo T cell suppression assays. Suppression assays were performed by adding sorted CD4+ cells to T cell proliferation assays (72 hour thymidine incorporation assays) containing responder H-2K^b-specific splenocytes from BM3 TCR transgenic mice (nylon-wool enriched) and CD11c+ splenocytes (AutoMacs enriched) from CBK (H-2K^b transgenic CBA) mice prepared as described (Mellor et al. J Immunol 2005; 175:5601-5605)."}, "[7]": {"test_system": "OT-I and A1 T cells", "test": "Bystander-suppression assays (TDLN IDO+ DCs, OT-I, Tregs, A1 bystander cells)", "assay_type": "cell-based, mouse", "procedure": "Isolation of tumor-draining lymph node DCs.\nBystander-suppression assays. All experiments were repeated 3-5 times unless otherwise indicated. OT-I cells were sorted as CD8^+ spleen cells, gated on the CD11c^NEGB220^NEG fraction to exclude DCs. Sorted DCs from TDLN were mixed with 1×10^5 responder cells at a 1:40 ratio in V-bottom culture wells (Nunc). […] Sorted CD4^+ A1 cells (1×10^5) and CD11c^+ DCs (1:40 ratio) from normal CBA spleen were added as bystander cells. […] For transwell assays, 96-Multiwell insert plates (1 uM pore size, BD Falcon) were used and the number of cells in all groups was doubled.\nFeeder layer. Plasmacytoid DCs and Tregs have been reported to require survival factors to maintain viability and function in vitro.\nReadouts for T cell proliferation. […] After 72 hours, assays were stained for CD4 vs CD8 and CFSE fluorescence analyzed gated on CD4^+ (A1) and CD8^+ (OT-I) populations.\nAnti-CD3 proliferation and preactivation assays. […] For pre-activation studies, 2×10^4 Tregs were cultured with 1×10^5T-depleted spleen cells plus 0.1 ug/ml αCD3 antibody and 200 U/ml IL-2 (R&D Systems) for 48 hours."}, "[8]": {"test_system": "primed CD4+ T cells / naive CD4+ T cells", "test": "MLR assays of function of CpG-PDC or CpG-B cell primed CD4+ T cells", "assay_type": "cell-based, human", "settings": "KYN added to priming MLRs containing 1MT", "procedure": "In vitro priming of naive CD4+ T cells. CD4+CD45RA+ naive T cells were primed with allogeneic PDCs or irradiated B cells (30 Gy) at a 10:1 ratio (e.g., 2×10^6 naive CD4+ T cells plus 2×105 PDCs per well in 24-well plates) with ODN 2216 or ODN 2006 present in RPMI 1640 medium supplemented with 10% human AB serum. 1 MT and/or KYN were added into CpG ODN-PDC or CpG ODN-B cell mediated naive CD4+ T cell priming cultures as indicated. In some experiments, blocking Abs against CD80, CD86, HLA-DR or the control IgG Ab (R&D Systems, Minneapolis, Minn.) were added to CpG-PDC-mediated naive CD4+ T cell priming cultures at a final Ab concentration ranging from 0.1 to 10 μg/ml. After 7 days, primed T cells in cultures were harvested, assessed for their surface phenotype, intracellular Foxp3 expression, and their function in MLR assays.\nMLR assays. […] In all T cell proliferation assays, plates were incubated at 37° C. for 5 days and pulsed with 1 μCi of 3H-thymidine per well for the last 18 hours before harvesting. All determinations were carried out in triplicate and 3H-thymidine incorporation was determined."}, "[9]": {"test_system": "auto-reactive T cells", "settings": "cited from earlier work"}, "[10]": {"test_system": "experimental autoimmune encephalomyelitis", "settings": "mouse model; cited from earlier work"}, "[11]": {"test_system": "P815 transfected with IDO", "settings": "concomitant administration; cited from earlier work"}, "[12]": {"test_system": "Lewis Lung carcinoma", "settings": "Lewis Lung carcinoma model; cited from earlier work"}}, "note": "Strand notation (5' to 3'): a small letter for the sugar, then the base; units joined by * are phosphorothioate-linked, units joined directly phosphodiester-linked; [ ] holds rarer units or linkages, { } end groups; capitals alone tell only the bases. d = 2'-deoxy (DNA)", "data": [{"compound": "ODN 2216: Phosphorothioate-modified type-A CpG ODN gGGGACGATCGTCgggggG (SEQ ID NO:2) (DNA dG*dGdGdGdAdCdGdAdTdCdGdTdCdG*dG*dG*dG*dG*dG)", "values": [{"measurement": "frequency of PDC-induced CD4+CD25+Foxp3+ Tregs", "setting": "[1]; day 7 of cultures, CpG ODN 1 μg/ml, mean±SD, 5.7±3.1% without CpG ODN", "value": "21.6±5.2", "unit": "%"}, {"measurement": "IDO expression of PDCs during culture", "setting": "[2]", "value": "sustained their IDO expression"}, {"measurement": "cell surface expression of CD80, CD86, HLA-DR on PDCs", "setting": "[3]", "value": "upregulate cell surface expression"}]}, {"compound": "non-CpG: sequence matched non-CpG ODN TCCATGAGCTTCCTGAGCTT (SEQ ID NO:5) (DNA dT*dC*dC*dA*dT*dG*dA*dG*dC*dT*dT*dC*dC*dT*dG*dA*dG*dC*dT*dT)", "values": [{"measurement": "spleen tissue pathology after co-transfer of Tregs from treated donor mice", "setting": "[4]", "value": "did not prevent extensive tissue pathology"}, {"measurement": "clonal expansion of BM3 T cells in vivo after co-transfer of Tregs from treated donor mice", "setting": "[4]; donors treated 24 hours with 50 μg", "value": "did not inhibit"}, {"measurement": "number of CHOP+ Tregs over basal levels", "setting": "[5]", "value": "only slightly increased"}, {"measurement": "suppressor functions of purified Tregs from IDO-KO mice", "setting": "[6]; IDO-KO mice", "value": "no significant increase in suppressor functions"}, {"measurement": "suppression of BM3 T cell proliferation by purified Tregs from treated mice", "setting": "[6]; mice treated 24 hours, 50 μg/mouse i/v, IDO-WT, 72 hour thymidine incorporation", "value": "did not suppress BM3 proliferation"}]}, {"compound": "N[C@@H](Cc1c[nH]c2ccccc12)C(=O)O", "note": "[tryptophan]", "values": [{"measurement": "IDO-induced bystander suppression, effect of added agent", "setting": "[7]; not in transwells, thymidine incorporation/CFSE, tryptophan 10× (250 uM)", "value": "abrogated suppression"}]}, {"compound": "Nc1ccccc1C(=O)CC(N)C(=O)O", "note": "(stereo not shown) [KYN, Kynurenine]", "values": [{"measurement": "CD4+CD25+Foxp3+ Treg generation in priming MLRs containing 1MT", "setting": "[1]; KYN 50 μM added with 1MT 250 μM, ODN 2216-PDC, day 7", "value": "restored CD4+CD25+Foxp3+ Treg generation"}, {"measurement": "functional suppressor activity of PDC-primed T cells in MLR", "setting": "[8]", "value": "restored the generation of functional suppressor activity"}, {"measurement": "hyporesponsiveness of primed T cells to alloantigen stimulation in MLR", "setting": "[8]", "value": "restored"}, {"measurement": "bystander suppression with excess kynurenine when IDO blocked with 1MT", "setting": "[7]; 1MT+25 uM kynurenine", "value": "did not recapitulate suppression"}]}, {"compound": "COc1ccc(C=CC(=O)Nc2ccccc2C(=O)O)cc1OC", "note": "[3,4-DAA, N-(3,4,-Dimethoxycinnamoyl)anthranilic acid]", "values": [{"measurement": "inflammatory cytokine production by auto-reactive T cells", "setting": "[9]", "value": "inhibit inflammatory cytokine production"}, {"measurement": "paralysis in experimental autoimmune encephalomyelitis", "setting": "[10]", "value": "reverse paralysis"}]}, {"compound": "Cn1cc(C[C@H](N)C(=O)O)c2ccccc21", "note": "[Inhibitor 1-MT, 1-methyl-tryptophan]", "values": [{"measurement": "IDO-mediated prevention of P815 rejection by pre-immunized hosts", "setting": "[11]", "value": "substantially reversed"}, {"measurement": "tumor outgrowth", "setting": "[12]", "value": "significantly delayed tumor outgrowth"}]}, {"compound": "Nc1c(O)cccc1C(=O)O", "note": "[3-hydroxyanthranilic acid]", "values": [{"measurement": "inflammatory cytokine production by auto-reactive T cells", "setting": "[9]", "value": "inhibit inflammatory cytokine production"}, {"measurement": "paralysis in experimental autoimmune encephalomyelitis", "setting": "[10]", "value": "reverse paralysis"}]}]}
